# Data reported in patent US12624024B2, “EP2 antagonist compounds” (Reservoir Neuroscience, Inc., priority 2021, dated 2026).
# Target: T1, EP2 receptor (Homo sapiens, UniProt P43116)
# T1 construct: expressed in transfected cells; host or cells: CHO-K1 cells (ATCC), transient transfection with FuGENE 6
# Assay: EP2 Potency Assay (cAMP TR-FRET, CHO-K1 cells transfected with EP2 receptor, PGE2 at EC80)
# Type: cell-based
# Conditions: CHO-K1 cells expressing EP2, prostaglandin E2 at EC80, read-out: EP2 Potency (IC50 category)
# Experimental: Compound potency was measured using a cAMP TR-FRET assay.
# After 6 hours incubation, the cell media was replaced with F12 medium supplemented with 10% FBS and 100 U/ml Pen-Strep. 24 hours after transfection, cells were harvested and seeded at a density of 3000 cells/well in a 384 well plate to perform the cAMP assay, using the LANCE Ultra cAMP assay kit (PerkinElmer).
# Plates were then centrifuged at 1000 rpm for 1 min, agitated at 600 rpm at R.T. for 2 min, and incubated at 25° C. for 5 min. The reference agonist, prostaglandin E2 (MCE), was added to each well at the appropriate concentration to reach its EC80 value. Plates were then centrifuged at 1000 rpm for 1 min, agitated at 600 rpm at R.T. for 2 min, and incubated at 25° C. for 30 min.
# A dose-response curve was prepared by plotting percent inhibition for each compound concentration, and then IC50 was calculated by fitting a curve to the plotted values and extrapolating the IC50 concentration.
# T1 sequence (P43116 whole entry): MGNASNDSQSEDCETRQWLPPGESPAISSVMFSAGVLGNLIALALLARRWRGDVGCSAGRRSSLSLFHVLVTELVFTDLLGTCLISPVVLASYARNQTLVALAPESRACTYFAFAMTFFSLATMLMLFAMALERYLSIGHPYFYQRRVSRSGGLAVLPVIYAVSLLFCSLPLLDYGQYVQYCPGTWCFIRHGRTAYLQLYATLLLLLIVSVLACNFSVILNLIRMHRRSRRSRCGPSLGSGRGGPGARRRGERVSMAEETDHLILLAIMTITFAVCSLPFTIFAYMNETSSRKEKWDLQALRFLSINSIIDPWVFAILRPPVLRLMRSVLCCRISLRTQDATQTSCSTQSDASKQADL
row,IC50 [µM],Compound
1,> 5,COC(=O)[C@H]1CC[C@@H](CN2CCOc3c(Cl)cc(-n4ccc5cc(F)ccc54)cc3C2)CC1 [Compound 134]
2,0.1 to 0.5,"NCc1ncc(CN2CCOc3c(Cl)cc(-n4ccc5cc(F)ccc54)cc3C2)cn1 [Compound 139, 1-(5-{[9-chloro-7-(5-fluoroindol-1-yl)-3,5-dihydro-2H-1,4-benzoxazepin-4-yl]methyl}pyrimidin-2-yl)methanamine]"
3,1 to 5,"CC(C)(C)OC(=O)NCc1ncc(CN2CCOc3c(Cl)cc(-n4ccc5cc(F)ccc54)cc3C2)cn1 [Compound 140, tert-butyl N-[(5-{[9-chloro-7-(5-fluoroindol-1-yl)-3,5-dihydro-2H-1,4-benzoxazepin-4-yl]methyl}pyrimidin-2-yl)methyl]carbamate]"
4,0.5 to 1,"OCc1ncc(CN2CCOc3c(Cl)cc(-n4ccc5cc(F)ccc54)cc3C2)cn1 [Compound 141, (5-{[9-chloro-7-(5-fluoroindol-1-yl)-3,5-dihydro-2H-1,4-benzoxazepin-4-yl]methyl}pyrimidin-2-yl)methanol]"
5,1 to 5,"NC(=O)c1ncc(CN2CCOc3c(Cl)cc(-n4ccc5cc(F)ccc54)cc3C2)cn1 [Compound 143, 5-{[9-chloro-7-(5-fluoroindol-1-yl)-3,5-dihydro-2H-1,4-benzoxazepin-4-yl]methyl}pyrimidine-2-carboxamide]"
6,< 0.1,"COC(=O)c1ncc(CN2CCOc3c(Cl)cc(-n4ccc5cc(F)ccc54)cc3C2)cn1 [Compound 145, Methyl 5-{[9-chloro-7-(5-fluoroindol-1-yl)-3,5-dihydro-2H-1,4-benzoxazepin-4-yl]methyl}pyrimidine-2-carboxylate]"
7,0.1 to 0.5,CNc1ncc(CN2CCOc3c(Cl)cc(-n4ccc5cc(F)ccc54)cc3C2)cn1 [Compound 147]
8,0.5 to 1,CN(C)c1ncc(CN2CCOc3c(Cl)cc(-n4ccc5cc(F)ccc54)cc3C2)cn1 [Compound 148]
9,0.1 to 0.5,"Fc1ccc2c(ccn2-c2cc(Cl)c3c(c2)CN(Cc2cnc(NC4COC4)nc2)CCO3)c1 [Compound 149, 5-{[9-chloro-7-(5-fluoroindol-1-yl)-3,5-dihydro-2H-1,4-benzoxazepin-4-yl]methyl}-N-(oxetan-3-yl)pyrimidin-2-amine]"
10,1 to 5,"O=c1ncc(CN2CCOc3c(Cl)cc(-n4ccc5cc(F)ccc54)cc3C2)c(F)[nH]1 [Compound 155, 5-{[9-chloro-7-(5-fluoroindol-1-yl)-3,5-dihydro-2H-1,4-benzoxazepin-4-yl]methyl}-4-fluoro-3H-pyrimidin-2-one]"
11,1 to 5,"O=c1ncc(CN2CCOc3c(Cl)cc(-n4ccc5cc(F)ccc54)cc3C2)c(O)[nH]1 [Compound 157, 5-{[9-chloro-7-(5-fluoroindol-1-yl)-3,5-dihydro-2H-1,4-benzoxazepin-4-yl]methyl}-4-hydroxy-3H-pyrimidin-2-one]"
12,1 to 5,"Oc1ncc(CN2CCOc3c(Cl)cc(-n4ccc5cc(F)ccc54)cc3C2)c(Cl)n1 [Compound 158, 4-chloro-5-{[9-chloro-7-(5-fluoroindol-1-yl)-3,5-dihydro-2H-1,4-benzoxazepin-4-yl]methyl}-3H-pyrimidin-2-one]"
13,0.5 to 1,COc1nccc(CN2CCOc3c(Cl)cc(-n4ccc5cc(F)ccc54)cc3C2)n1 [Compound 161]
14,1 to 5,"Fc1ccc2c(ccn2-c2cc(Cl)c3c(c2)CN(Cc2ccnc(NC4COC4)n2)CCO3)c1 [Compound 162, 4-{[9-chloro-7-(5-fluoroindol-1-yl)-3,5-dihydro-2H-1,4-benzoxazepin-4-yl]methyl}-N-(oxetan-3-yl)pyrimidin-2-amine]"
15,1 to 5,"Nc1nccc(CN2CCOc3c(Cl)cc(-n4ccc5cc(F)ccc54)cc3C2)n1 [Compound 163, 4-{[9-chloro-7-(5-fluoroindol-1-yl)-3,5-dihydro-2H-1,4-benzoxazepin-4-yl]methyl}pyrimidin-2-amine]"
16,> 5,O=c1nccc(CN2CCOc3c(Cl)cc(-n4ccc5cc(F)ccc54)cc3C2)[nH]1 [Compound 164]
17,0.5 to 1,Fc1ccc2c(ccn2-c2cc(Cl)c3c(c2)CN(Cc2cccnn2)CCO3)c1 [Compound 166]
